Test results taken from patent US20160100579A1, “NEMATICIDAL N-(2-SUBSTITUTED 2-PHENYLETHYL)CARBOXAMIDES AND N-(2-SUBSTITUTED 2-PHENYLETHYL)-THIOCARBOXAMIDES” (priority 2013, published 2016).
Where two headings read alike, the source gives them in different places.

Assays:
[1] = Measurement of log P values by HPLC on reversed phase columns (EEC directive 79/831 Annex V.A8; methods [a] pH 2.3, [b] pH 2.7, [c] pH 7.8); format: physicochemical; details: for chromatographic logP: reversed phase HPLC column
Description: Measurement of log P-values:
Measurement of log P values was performed according EEC directive 79/831 Annex V.A8 by HPLC (High Performance Liquid Chromatography) on reversed phase columns with the following methods:
^[a] Measurement was done at pH 2.3 with 0.1% phosphoric acid and acetonitrile as eluent with a linear gradient from 10% acetonitrile to 95% acetonitrile.
^[b] measurement of LC-MS was done at pH 2.7 with 0.1% formic acid in water and with acetonitrile (contains 0.1% formic acid) as eluent with a linear gradient from 10% acetonitrile to 95% acetonitrile.
^[c] Measurement with LC-MS was done at pH 7.8 with 0.001 molar ammonium hydrogen carbonate solution in water as eluent with a linear gradient from 10% acetonitrile to 95% acetonitrile.
Calibration was done with not branched alkan2-ones (with 3 to 16 carbon atoms) with known log P-values (measurement of log P values using retention times with linear interpolation between successive alkanones).. lambda-maX-values were determined using UV-spectra from 200 nm to 400 nm and the peak values of the chromatographic signals.

Haemonchus contortus = Haemonchus contortus - Test (HAEMCO); format: in vivo; details: after 5 days, 100% = all larvae killed
Description: Haemonchus contortus—Test (HAEMCO)
(§1) Solvent: dimethyl sulfoxide
(§2) To produce a suitable preparation of active compound, 10 mg of active compound are dissolved in 0.5 ml solvent, and the concentrate is diluted with “Ringer's solution” to the desired concentration.
Approximately 40 larvae of the red stomach worm (Haemonchus contortus) are transferred into a test tube containing compound solution.
After 5 days percentage of larval mortality is recorded. 100% efficacy means all larvae are killed, 0% efficacy means no larvae are killed.

Cooperia curticei = format: in vivo; details: after 5 days, 100% = all larvae killed
Description: Cooperia curticei—Test (COOPCU)
as §1, §2
Approximately 40 nematode larvae (Cooperia curticei) are transferred into a test tube containing the compound solution.
After 5 days percentage of larval mortality is recorded. 100% efficacy means all larvae are killed; 0% efficacy means no larvae are killed.

Meloidogyne incognita = Meloidogyne incognita - test (MELGIN); format: in vivo; details: 20 ppm; salad seedlings in sand; after 14 days; 100% = no galls found
Description: Meloidogyne incognita—test (MELGIN)
Solvent: 125.0 parts by weight of acetone
To produce a suitable preparation of active compound, 1 part by weight of active compound is mixed with the stated amount of solvent, and the concentrate is diluted with water to the desired concentration.
Vessels are filled with sand, a solution of the active ingredient, a suspension containing eggs and larvae of the southern root-knot nematode (Meloidogyne incognita) and salad seeds. The salad seeds germinate and the seedlings grow. Galls develop in the roots.
After 14 days the nematicidal activity is determined on the basis of the percentage of gall formation. 100% means that no galls were found; 0% means the number of galls found on the roots of the treated plants was equal to that in untreated control plants.

Boophilus microplus = Boophilus microplus - Injectiontest (BOOPMI Inj); format: in vivo; details: 20 μg/animal injected into adult engorged female ticks; after 7 days; 100% = all eggs infertile
Description: Boophilus microplus—Injectiontest (BOOPMI Inj)
as §1
To produce a suitable preparation of active compound, 10 mg of active compound are dissolved in 0.5 ml solvent, and the concentrate is diluted with solvent to the desired concentration.
Five adult engorged female ticks (Boophilus microplus) are injected with 1 μl compound solution into the abdomen. Ticks are transferred into replica plates and incubated in a climate chamber.
After 7 days the egg deposition of fertile eggs is monitored. Eggs where fertility is not visible are stored in a climate chamber till hatching after about 42 days. An efficacy of 100% means all eggs are infertile; 0% means all eggs are fertile.

[2] = method [b]: LC-MS, pH 2.7, 0.1% formic acid in water / acetonitrile
[3] = method [c]: LC-MS, pH 7.8, 0.001 molar ammonium hydrogen carbonate / acetonitrile
[4] = method [b]: LC-MS at pH 2.7, 0.1% formic acid in water / acetonitrile
[5] = method [c]: LC-MS at pH 7.8, 0.001 molar ammonium hydrogen carbonate in water / acetonitrile
[6] = method [a]: HPLC, pH 2.3, 0.1% phosphoric acid / acetonitrile

| Structure (SMILES) | logP [1, 2] | activity (efficacy: larval mortality) (Cooperia curticei; 20 ppm) [%] | nematicidal activity (percentage of gall formation) (Meloidogyne incognita) [%] | log P [1, 4] | log P [1, 5] | other results |
| --- | --- | --- | --- | --- | --- | --- |
| COC(c1ccc(Cl)cc1)C(C)NC(=O)c1sccc1Br (stereo not shown) [Compound 65] | 3.89^[b] | – | – | – | – | logP [1, 3]: 3.83^[c];; activity (efficacy: larval mortality) (Haemonchus contortus; 100 ppm): 100%; activity (efficacy: larval mortality) (Cooperia curticei; 100 ppm): 80% |
| CCC(NC(=O)c1nccnc1C(F)(F)F)C(OC)c1ccc(Cl)cc1Cl (stereo not shown) [Compound 92] | 3.99^[b] | 90 | 90 | – | – | – |
| COC(c1ccc(Cl)cc1Cl)C1(NC(=O)c2nccnc2Cl)CC1 (stereo not shown) [Compound 210, 3-chloro-N-{1-[(2,4-dichlorophenyl)(methoxy)methyl]cyclopropyl}pyrazine-2-carboxamide] | – | – | 100 | – | – | chromatographic logP ([1]; acid HPLC method, reversed phase, read-out: Log P acid): 3.24; chromatographic logP ([1]; method [b]: LC-MS at pH 2.7, 0.1% formic acid in water / acetonitrile, read-out: log P): 3.24; chromatographic logP ([1]; method [c]: LC-MS at pH 7.8, 0.001 molar ammonium hydrogen carbonate in water / acetonitrile, read-out: log P): 3.19 |
| COC(CNC(=O)c1nccnc1C(F)(F)F)c1ccc(Cl)cc1Cl (stereo not shown) [Compound 103] | 3.35^[b] | 90 | 90 | – | – | activity (efficacy: egg deposition of fertile eggs) (Boophilus microplus): 80% |
| COC(CNC(=O)c1cccnc1C(F)(F)F)c1ccc(Cl)cc1Cl (stereo not shown) [Compound 104] | 3.11^[b] | – | 90 | – | – | – |
| COC(c1ccccc1Cl)C(C)NC(=O)c1c(F)cccc1C(F)(F)F (stereo not shown) [Compound 141] | – | – | 90 | 3.52^[b] | 3.50^[c]; | – |
| CCOC(c1ccc(Cl)cc1Cl)C(C)NC(=O)c1ccccc1[N+](=O)[O-] (stereo not shown) [Compound 202] | – | 100 | 90 | 3.83^[b] | 3.80^[c]; | activity (efficacy: larval mortality) (Haemonchus contortus; 20 ppm): 80% |
| COC(CNC(=O)c1sccc1Cl)c1ccc(Cl)cc1 (stereo not shown) [Compound 69] | 3.41^[b] | – | – | – | – | logP [1, 3]: 3.39^[c];; activity (efficacy: larval mortality) (Haemonchus contortus; 100 ppm): 90%; activity (efficacy: larval mortality) (Cooperia curticei; 100 ppm): 90% |
| COC(c1ccc(Cl)cc1)C(C)NC(=O)c1ccccc1Cl (stereo not shown) [Compound 130] | – | 80 | – | – | 3.21^[c] | activity (efficacy: larval mortality) (Haemonchus contortus; 20 ppm): 80% |
| COC(c1ccccc1Cl)C(C)NC(=O)c1ccccc1C(F)F (stereo not shown) [Compound 140] | – | – | 90 | 3.42^[b] | 3.39^[c]; | – |
| COC(c1ccccc1Cl)C(C)NC(=O)c1c(F)cccc1F (stereo not shown) [Compound 144] | – | – | 90 | 3.11^[b] | 3.08^[c]; | – |
| COC(c1ccccc1Cl)C(C)NC(=O)c1ccccc1Br (stereo not shown) [Compound 142] | – | – | 90 | 3.34^[b] | 3.31^[c]; | – |
| COC(c1ccc(Cl)cc1Cl)C(C)NC(=O)c1cn(C)nc1C(F)F (stereo not shown) [Compound 12] | – | – | 100 | – | – | activity (efficacy: larval mortality) (Haemonchus contortus; 100 ppm): 90% |
| COC(c1ccc(F)cc1)C(C)NC(=O)c1ccccc1Cl (stereo not shown) [Compound 191] | – | – | 90 | 3.02^[b] | 2.95^[c]; | – |
| COC(c1ccccc1Cl)C(C)NC(=O)c1ccsc1I (stereo not shown) [Compound 203] | – | 80 | – | 3.53^[b] | 3.53^[c]; | activity (efficacy: larval mortality) (Haemonchus contortus; 20 ppm): 80% |
| COC(c1ccc(Cl)cc1Cl)C1(NC(=O)c2nccnc2C(F)(F)F)CC1 (stereo not shown) [Compound 99] | 3.61^[b] | 100 | – | – | – | – |
| COC(c1ccc(Cl)cc1)C(C)NC(=O)c1ccccc1C(F)(F)F (stereo not shown) [Compound 128] | – | 80 | – | 3.45^[b] | 3.35^[c]; | activity (efficacy: larval mortality) (Haemonchus contortus; 20 ppm): 90% |
| COC(c1ccc(Cl)cc1Cl)C(C)NC(=O)c1ccccc1C(F)(F)F (stereo not shown) [Compound 35] | – | – | 90 | – | – | logP [1, 6]: 3.90^[a]; activity (efficacy: larval mortality) (Haemonchus contortus; 100 ppm): 100% |

| Structure (SMILES) | logP [1, 2] | activity (efficacy: larval mortality) (Cooperia curticei; 20 ppm) [%] | nematicidal activity (percentage of gall formation) (Meloidogyne incognita) [%] | log P [1, 4] | log P [1, 5] | other results |
| --- | --- | --- | --- | --- | --- | --- |
| COC(c1ccccc1Cl)C(C)NC(=O)c1ccccc1Cl (stereo not shown) [Compound 156] | – | – | 90 | 3.74^[b] | 3.26^[c]; | – |
| CCOC(c1ccc(Cl)cc1Cl)C(C)NC(=O)c1nccnc1C(F)(F)F (stereo not shown) [Compound 107] | 4.16^[b] | 100 | 100 | – | – | – |
| CCOC(c1ccc(Cl)cc1Cl)C(C)NC(=O)c1cccnc1C(F)F (stereo not shown) [Compound 105] | 3.57^[b] | – | 90 | – | – | – |
| CCOC(c1ccc(Cl)cc1Cl)C(C)NC(=O)c1ccccc1C(F)(F)F (stereo not shown) [Compound 194] | – | – | 90 | 4.50[b] | 4.44^[c]; | – |
| Cc1ccsc1C(=O)NCC(OCC1CC1)c1ccc(Cl)cc1 (stereo not shown) [Compound 6] | – | – | – | – | – | logP [1, 6]: 3.87^[a]; activity (efficacy: larval mortality) (Cooperia curticei; 100 ppm): 90% |
| COC(c1ccccc1Cl)C(C)NC(=O)c1nccnc1Cl (stereo not shown) [Compound 213] | – | – | 100 | 2.76^[b] | 2.73^[c]; | – |
| COC(c1ccccc1Cl)C(C)NC(=O)c1cccnc1C(F)(F)F (stereo not shown) [Compound 209] | – | 90 | – | 3.27^[b] | 3.24^[c]; | – |
| C=CCOC(CNC(=O)c1cccnc1Cl)c1ccc(Cl)cc1 (stereo not shown) [Compound 8] | – | 80 | – | – | – | – |
| CCOC(c1ccc(Cl)cc1Cl)C(C)NC(=O)c1cccnc1C(F)(F)F (stereo not shown) [Compound 108] | 3.92^[b] | – | 100 | – | – | – |
| CCOC(c1ccc(Cl)cc1Cl)C(C)NC(=O)c1ccsc1I (stereo not shown) [Compound 205] | – | 100 | – | 4.63^[b] | 4.60^[c]; | activity (efficacy: larval mortality) (Haemonchus contortus; 20 ppm): 90% |
| COC(c1ccc(Cl)cc1Cl)C(C)NC(=O)c1nccnc1C(F)(F)F (stereo not shown) [Compound 73] | – | 90 | 100 | – | – | activity (efficacy: larval mortality) (Haemonchus contortus; 20 ppm): 100% |
| COC(c1ccc(Cl)cc1Cl)C(C)NC(=O)c1cccnc1C(F)(F)F (stereo not shown) [Compound 39] | – | – | 90 | – | – | activity (efficacy: larval mortality) (Haemonchus contortus; 100 ppm): 100% |
| COC(c1ccc(Cl)cc1)C(C)NC(=O)c1ccoc1I (stereo not shown) [Compound 64] | 3.28^[b] | 80 | – | – | – | activity (efficacy: larval mortality) (Haemonchus contortus; 20 ppm): 100% |
| COC(c1ccccc1Cl)C(C)NC(=O)c1nccnc1C(F)(F)F (stereo not shown) [Compound 208] | – | 80 | 90 | 3.11^[b] | 3.10^[c]; | – |
| COC(c1ccc(Cl)cc1Cl)C1(NC(=O)c2cccnc2C(F)(F)F)CC1 (stereo not shown) [Compound 100] | 3.37^[b] | – | 90 | – | – | – |
| C=CCOC(CNC(=O)c1sccc1C)c1ccc(Cl)cc1 (stereo not shown) [Compound 2] | – | 100 | – | – | – | activity (efficacy: larval mortality) (Haemonchus contortus; 20 ppm): 90% |
| COC(c1ccccc1Cl)C(C)NC(=O)c1cccnc1Cl (stereo not shown) [Compound 143] | – | – | 90 | 2.55^[b] | 2.53^[c]; | – |
| COC(c1ccc(Cl)cc1Cl)C(C)NC(=O)c1ccccc1Cl (stereo not shown) [Compound 30] | – | – | 100 | – | – | activity (efficacy: larval mortality) (Haemonchus contortus; 100 ppm): 100% |
